One data set has as its system Ba/F3 parental cells. Briefly: Inhibition of Ba/F3 parental cell proliferation (CTG). As to conditions: Mus musculus, BaF3, 72 hours, with IL-3. Type of data set: cell-based. How it is done:
Cell lines were cultured under the condition of 37° C., 5% CO2 and 95% humidity: cell line Ba/F3 parental (suspended, 3000 cells/well, medium was RPMI-1640+10% FBS+8 ng/ml IL-3), cell line Ba/F3 FLT3-ITD (suspended, 3000 cells/well, medium was RPMI-1640+10% FBS)
Reagents and materials: Fetal bovine serum (FBS, GBICO, Cat. No. 10099-141), CellTiter-Glo® Luminescent Cell Viability Assay (Promega, Cat. No. G7572), 96-well plate with transparent flat bottom and black walls (Corning®, Cat. No. 3603), control compound AC220 (Selleck, Cat. No. S1526).
Cell Culture and Inoculation: • 1. Cells in the logarithmic growth phase were harvested and counted using a platelet counter. The cell viability was determined by trypan blue exclusion method to ensure that the cell viability was greater than 90%; • 2. The cell concentration was adjusted and 90 μL of the cell suspension was added into a 96-well plate respectively; • 3. The cells in the 96-well plate were cultured overnight under the condition of 37° C., 5% CO2 and 95% humidity.
Drug Dilution and Dosing: • 1. The 10-fold drug solutions were prepared with a maximum concentration of 100 μM, which was diluted using a 3.16-fold serial gradient dilution, resulting in 9 concentrations. 10 μL of the drug solutions was added to each well of the 96-well plate inoculated with Ba/F3 parental cells; and each drug concentration was set in triplicate. • 2. The 10-fold drug solutions were prepared with a maximum concentration of 10 μM, which was diluted using a 3.16-fold serial gradient dilution, resulting in 9 concentrations. 10 μL of the drug solutions was added to each well of the 96-well plate inoculated with Ba/F3 FLT3-ITD cells; and each drug concentration was set in triplicate. • 3. The cells in the 96-well plate with drugs were cultured at 37° C., 5% CO2 and 95% humidity for 72 hours, and then CTG analysis was carried out.
Plate Reading at the End Point: • 1. CTG reagent was thawed and the cell plate was equilibrated to room temperature for 30 minutes; • 2. Equal volume of the CTG solution was added to each well; • 3. The cell plate was shaked on the orbital shaker for 5 minutes to lyse the cells; • 4. The cell plate was placed at room temperature for 20 minutes to stabilize the cold light signal; • 5. The cold light values were read.
GraphPad Prism 8.0 software was used to analyze the data, and the data was fitted using the non-linear S-curve regression to get a dose-effect curve, and IC50 values were calculated. Cell viability (%)=(Lum of test drug−Lum of medium control)/(Lum of cell control−Lum of medium control)×100%.

A short description of data set [1]: Metabolic stability in human liver microsomes. Type of data set: in vitro ADME. Particulars: pH 7.4; human liver microsomes 0.5 mg/mL, 1 μM compound. The protocol: Microsome assay: human liver microsomes: 0.5 mg/mL, Xenotech; rat liver microsomes: 0.5 mg/mL, Xenotech; coenzyme (NADPH/NADH): 1 mM, Sigma Life Science; magnesium chloride: 5 mM, 100 mM phosphate buffer (pH 7.4).
Preparation of stock solutions: Powder of the example compounds and the control compound were accurately weighed and dissolved in DMSO to 5 mM respectively.
Preparation of phosphate buffer (100 mM, pH7.4): A pre-prepared 0.5 M potassium dihydrogen phosphate (150 mL) was mixed with 0.5 M dibasic potassium phosphate (700 mL). The pH of the mixture was adjusted to 7.4 with 0.5 M dibasic potassium phosphate solution. The mixture was diluted 5-fold with ultrapure water before use, and magnesium chloride was added to obtain a phosphate buffer (100 mM) containing 100 mM potassium phosphate, 3.3 mM magnesium chloride, pH 7.4.
A NADPH regeneration system solution (containing 6.5 mM NADP, 16.5 mM G-6-P, 3 U/mL G-6-P D, 3.3 mM magnesium chloride) was prepared and placed on wet ice prior to use.
Preparation of stop solution: an acetonitrile solution containing 50 ng/mL propranolol hydrochloride and 200 ng/mL tolbutamide (internal standard). 25057.5 μL of phosphate buffer (pH 7.4) was taken into a 50 mL centrifuge tube, to which 812.5 μL of human liver microsomes were added, and mixed to obtain a liver microsome dilution with a protein concentration of 0.625 mg/mL. 25057.5 μL of phosphate buffer (pH 7.4) was taken into a 50 mL centrifuge tube, to which 812.5 μL of SD rat microsomes were added, and mixed to obtain a liver microsome dilution with a protein concentration of 0.625 mg/mL.
Incubation of the samples: The stock solutions of the respective compounds were respectively diluted to 0.25 mM with an aqueous solution containing 70% acetonitrile, and used as a working solution, ready for use. 398 μL of the dilutions of human liver microsomes and rat liver microsomes were added to 96-well incubation plates (N=2), respectively, and 2 μL of 0.25 mM working solution was added respectively and mixed.
Metabolic stability assay: 300 μL of pre-chilled stop solution was added to each well of 96-well deep well plates and placed on ice as stop plates. The 96-well incubation plates and NADPH regeneration system were placed in a 37° C. water bath, shaken at 100 rpm and pre-incubated for 5 min. 80 μL of incubation solution was taken out from each well of the incubation plates and added to the stop plates, mixed, and replenished with 20 μL of NADPH regeneration system solution as a 0-min sample. 80 μL of NADPH regeneration system solution was added to each well of the incubation plates to start the reaction and start counting. […] Separately, 100 μL of the reaction solutions was taken at 10, 30, and 90 min after the reaction, respectively, added to stop plates, and vortexed for 3 minutes to terminate the reaction. The stop plates were centrifuged at 5000×g at 4° C. for 10 min. 100 μL of the supernatant was added to a 96-well plate to which 100 μL of distilled water was previously added, mixed, and analyzed by LC-MS/MS.
Data analysis: The peak areas of the corresponding compounds and internal standard were detected by LC-MS/MS system, and the ratio of the peak area of the compounds to the internal standard was calculated.
(Liver microsomes are vesicles of endoplasmic reticulum, rich in cytochrome P450 enzymes.)

A value given as a limit tells only on which side of the number the result lay.

As a reminder, the IC50 is the concentration that inhibits the measured activity by half. In general, half-life refers to the time needed for the level to fall by half in the phase considered. Read a high half-life as slow decline. Usually microsomal CLint stands for the rate of metabolic loss divided by the concentration.

For the molecule `[2H]C([2H])([2H])Oc1cc(Nc2nc(NC3CCOCC3)c(CC)nc2C(N)=O)ccc1N1CCC(N2CCN(C)CC2)CC1` [Compound T-1, 6-ethyl-3-((3-(methoxy-d3)-4-(4-(4-methylpiperazin-1-yl)piperidin-1-yl)phenyl)amino)-5-((tetrahydro-2H-pyran-4-yl)amino)pyrazine-2-carboxamide], the concentration for half-maximal inhibition (IC50) in the data set on Ba/F3 parental cells came to 9.72 µM.

On to `[2H]C([2H])([2H])N1CCN(C2CCN(c3ccc(Nc4nc(NC5CCOCC5)c(CC)nc4C(N)=O)cc3OC)CC2)CC1` [Compound T-2, 6-ethyl-3-((3-methoxy-4-(4-(4-(methyl-d3)piperazin-1-yl)piperidin-1-yl)phenyl)amino)-5-((tetrahydro-2H-pyran-4-yl)amino)pyrazine-2-carboxamide], for which the concentration for half-maximal inhibition (IC50) with Ba/F3 parental cells was found to be 7.16 µM. In data set [1], this molecule displayed a half-life at 1 μM of 3.63 h and a microsomal CLint at 1 μM of 6.4 µL/min/mg.

In the case of `[2H]C([2H])([2H])Oc1cc(Nc2nc(NC3CCOCC3)c(CC)nc2C(N)=O)ccc1N1CCC(N2CCN(C([2H])([2H])[2H])CC2)CC1` [Compound T-3, 6-ethyl-3-((3-(methoxy-d3)-4-(4-(4-(methyl-d3)piperazin-1-yl)piperidin-1-yl)phenyl)amino)-5-((tetrahydro-2H-pyran-4-yl)amino)pyrazine-2-carboxamide], the IC50 in the data set on Ba/F3 parental cells turned out to be 5.37 µM. Also, in data set [1], the half-life at 1 μM stood at 3.33 h and the microsomal CLint at 1 μM stood at 6.9 µL/min/mg.

`[2H]C([2H])([2H])N1CCN(C2CCN(c3ccc(Nc4nc(NC5CCOCC5)c(C([2H])([2H])C([2H])([2H])[2H])nc4C(N)=O)cc3OC)CC2)CC1` [Compound T-5, 6-(ethyl-d5)-3-((3-methoxy-4-(4-(4-(methyl-d3)piperazin-1-yl)piperidin-1-yl)phenyl)amino)-5-((tetrahydro-2H-pyran-4-yl)amino)pyrazine-2-carboxamide]: the IC50 with Ba/F3 parental cells was found to be 9.29 µM. Moreover, in data set [1], the half-life at 1 μM amounted to 3.14 h and the microsomal CLint at 1 μM was 7.4 µL/min/mg.

Consider `[2H]C1([2H])N(C)C([2H])([2H])C([2H])([2H])N(C2CCN(c3ccc(Nc4nc(NC5CCOCC5)c(CC)nc4C(N)=O)cc3OC)CC2)C1([2H])[2H]` [Compound T-8, 6-ethyl-3-((3-methoxy-4-(4-(4-methylpiperazin-1-yl-2,2,3,3,5,5,6,6-d8)piperidin-1-yl)phenyl)amino)-5-((tetrahydro-2H-pyran-4-yl)amino)pyrazine-2-carboxamide], for which the concentration for half-maximal inhibition (IC50) in the data set with Ba/F3 parental cells is 6.87 µM. In data set [1], this molecule returned a half-life at 1 μM of 4.36 h and a microsomal CLint at 1 μM of 5.3 µL/min/mg.

In the case of `[2H]C([2H])([2H])N1C([2H])([2H])C([2H])([2H])N(C2CCN(c3ccc(Nc4nc(NC5CCOCC5)c(CC)nc4C(N)=O)cc3OC)CC2)C([2H])([2H])C1([2H])[2H]` [Compound T-9, 6-ethyl-3-((3-methoxy-4-(4-(4-(methyl-d3)piperazin-1-yl-2,2,3,3,5,5,6,6-d8)piperidin-1-yl)phenyl)amino)-5-((tetrahydro-2H-pyran-4-yl)amino)pyrazine-2-carboxamide], in the data set with Ba/F3 parental cells, the IC50 is > 10 µM. In data set [1], this molecule gave a half-life at 1 μM of 7.88 h and a microsomal CLint at 1 μM of 2.9 µL/min/mg.

Turning to `CCc1nc(C(N)=O)c(Nc2ccc(N3CCC(N4CCN(C)CC4)CC3)c(OC)c2)nc1NC1CCOCC1` [Gilteritinib, 6-ethyl-3-((3-methoxy-4-(4-(4-methylpiperazin-1-yl)piperidin-1-yl)phenyl)amino)-5-((tetrahydro-2H-pyran-4-yl)amino)pyrazine-2-carboxamide, reference compound], in data set [1], the half-life at 1 μM was found to be 2.75 h and the microsomal CLint at 1 μM is 8.4 µL/min/mg.

Source of the values: patent US11512074B2, “Substituted diamino heterocyclic carboxamide compound and a composition containing the compound and use thereof” (Shenzhen TargetRx, Inc., priority 2018, dated 2022).
